This test addresses T1, Human HPK1, catalytic domain (Homo sapiens, UniProt Q92918).
T1 sequence (Q92918 1-346): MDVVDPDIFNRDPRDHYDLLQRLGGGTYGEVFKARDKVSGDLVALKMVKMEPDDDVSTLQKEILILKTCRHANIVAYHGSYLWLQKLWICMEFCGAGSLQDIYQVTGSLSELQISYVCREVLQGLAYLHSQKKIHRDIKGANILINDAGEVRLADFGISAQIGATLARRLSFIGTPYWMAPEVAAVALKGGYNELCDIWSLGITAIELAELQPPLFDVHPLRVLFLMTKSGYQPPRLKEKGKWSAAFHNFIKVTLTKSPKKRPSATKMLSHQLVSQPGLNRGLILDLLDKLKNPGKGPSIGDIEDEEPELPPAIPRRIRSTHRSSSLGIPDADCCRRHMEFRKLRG
The experiment in a line: HPK1-SLP76 TR-FRET Assay. The test is classed as biochemical. To be noted: 75 pM HPK1, ATP 10 uM, SLP76 10 nM, 30 min pre-incubation, 60 min reaction. Background: TR-FRET usually uses a lanthanide donor and a delayed reading to cut background.

Here are results for 28 compounds from US20230399341A1, “7-PHENYL SUBSTITUTED 2-AMINOQUINAZOLINE INHIBITORS OF HPK1” (MERCK SHARP & DOHME LLC, priority 2020, published 2023).

The structures appear in SMILES notation.

A word on the IC50: it is the concentration that gives 50% inhibition. High values mean weaker potency, low ones greater potency.

Regarding `CC(=O)NC1CCc2cc(Nc3ncc4c(N)c(F)c(-c5cnc6c(c5C)NCCO6)cc4n3)ccc21` (single isomer, unassigned) [Compound 2-11, (S or R)—N-(5-((5-amino-6-fluoro-7-(8-methyl-2,3-dihydro-1H-pyrido[2,3-b][1,4]oxazin-7-yl)quinazolin-2-yl)amino)-2,3-dihydro-1H-inden-1-yl)acetamide], the IC50 worked out at 0.0821 nM.

Compound `COc1cc(C2CC2)ccc1Nc1ncc2c(N)c(F)c(-c3cnc4c(c3C)NCCO4)cc2n1` [Compound 2-176, N~2~-(4-cyclopropyl-2-methoxyphenyl)-6-fluoro-7-(8-methyl-2,3-dihydro-1H-pyrido[2,3-b][1,4]oxazin-7-yl)quinazoline-2,5-diamine] registered a 50% inhibitory concentration (IC50) of 17.2 nM.

On to `COc1cc2c(cc1Nc1ncc3ccc(-n4nc(C)nc4C4CCCN4)cc3n1)CN(C)CC2` (racemic) [Compound 3-19, (S and R)-N-(6-methoxy-2-meth-yl-1,2,3,4-tetrahydroisoquinolin-7-yl)-7-[3-methyl-5-(pyrrolidin-2-yl)-1H-1,2,4-triazol-1-yl]quin-azolin-2-amine], for which the concentration for half-maximal inhibition (IC50) was determined as 638 nM.

In turn, `COc1cc2c(cc1Nc1ncc3ccc(-c4cccc(C5CCC(=O)N5)c4)cc3n1)CN(C)CC2` (racemic) [Compound 1-99, (R and S)-5-(3-{2-[(6-methoxy-2-methyl-1,2,3,4-tetrahydroisoquinolin-7-yl)amino]quinazolin-7-yl}phenyl)pyrrolidin-2-one] returned a 50% inhibitory concentration (IC50) of 120 nM.

Compound `COc1cc2c(cc1Nc1ncc3ccc(N4CC(CO)OC4=O)cc3n1)CN(C)CC2` (racemic) [Compound 3-4, (S and R)-5-(hydroxymethyl)-3-{2-[(6-methoxy-2-methyl-1,2,3,4-tetrahydroisoquinolin-7-yl)amino]quinazolin-7-yl}-1,3-oxazolidin-2-one] came in with an IC50 of 9.36 nM.

`COc1cc2c(cc1Nc1ncc3ccc(-c4cncc5[nH]ccc45)cc3n1)CNCC2` [Compound 1-45, N-(6-methoxy-1,2,3,4-tetrahydroisoquinolin-7-yl)-7-(1H-pyrrolo[2,3-c]pyridin-4-yl)quinazolin-2-amine] registered an IC50 of 0.885 nM.

Consider `COc1cc2c(cc1Nc1ncc3ccc(Nc4cccc(CO)c4)cc3n1)CN(C)CC2` [Compound 3-31, [3-({2-[(6-methoxy-2-methyl-1,2,3,4-tetrahydroisoquinolin-7-yl)amino]quinazolin-7-yl}-amino)phenyl]methanol], for which half-maximal inhibition (IC50) was put at 29.4 nM.

In turn, `Cc1c(-c2c(F)c(N)c3cnc(Nc4ccc5c(c4)CN(C)CC54CC4)nc3c2Cl)cnc2c1NCCO2` [Compound 2-100, (+ or −)-8-chloro-6-fluoro-7-(8-methyl-2,3-dihydro-1H-pyrido[2,3-b][1,4]oxazin-7-yl)-N~2~- (2′-methyl-2′,3′-dihydro-1′H-spiro[cyclopropane-1,4′-isoquinolin]-7′-yl)quinazoline-2,5-diamine] yielded an IC50 of 1.19 nM.

For the compound `COc1cc2c(cc1Nc1ncc3ccc(Nc4cccc(C#N)n4)cc3n1)CN(C)CC2` [Compound 3-27, 6-({2-[(6-methoxy-2-methyl-1,2,3,4-tetrahydroisoquinolin-7-yl)amino]quinazolin-7-yl}-amino)-pyridine-2-carbonitrile], 22.5 nM corresponded to half-maximal inhibition (IC50).

The compound `COc1cc2c(cc1Nc1ncc3c(N)cc(Oc4ccc5c(c4)CCNC5)cc3n1)CN(C)CC2` [Compound 4-9, N2-(6-Methoxy-2-methyl-1,2,3,4-tetrahydroisoquinolin-7-yl)-7-((1,2,3,4-tetrahydroisoquinolin-6-yl)oxy)quinazoline-2,5-diamine] displayed an IC50 of 2.19 nM.

`CN1CCc2ccc(Nc3ncc4c(N)c(F)c(-c5cncc6[nH]ccc56)cc4n3)cc2C1` [Compound 2-139, 6-fluoro-N~2~-(2-methyl-1,2,3,4-tetrahydroisoquinolin-7-yl)-7-(1H-pyrrolo[2,3-c]pyridin-4-yl)quinazoline-2,5-diamine]: half-maximal inhibition (IC50) required 0.0422 nM.

`COc1cc2c(cc1Nc1ncc3ccc(-c4cc(F)ccc4CN)cc3n1)CN(C)CC2` [Compound 1-7, 7-[2-(aminomethyl)-5-fluorophenyl]-N-(6 methoxy-2-methyl-1,2,3,4-tetrahydroisoquinolin-7-yl)quinazolin-2-amine] showed an IC50 of 245 nM.

Take `COc1cc2c(cc1Nc1ncc3ccc([C@H]4CC[C@H](N)CC4)cc3n1)CN(C)CC2` [Compound 5-1, 7-((1r,4r)-4-aminocyclohexyl)-N-(6-methoxy-2-methyl-1,2,3,4-tetrahydroisoquinolin-7-yl)quinazolin-2-amine]: 662 nM corresponded to half-maximal inhibition (IC50).

As for `Cc1c(-c2cc3nc(Nc4ccc(S(C)(=O)=O)cc4)ncc3c(N)c2F)cnc2c1NCCO2` [Compound 2-17, 6-fluoro-7-(8-methyl-2,3-dihydro-1H-pyrido[2,3-b][1,4]oxazin-7-yl)-N~2~- [4-(methylsulfonyl)phenyl] quinazoline-2,5-diamine], the 50% inhibitory concentration (IC50) was 0.0851 nM.

As for `COc1cc2c(cc1Nc1ncc3ccc(-c4cnc5cccnc5c4)cc3n1)CN(C)CC2` [Compound 1-25, N-(6-methoxy-2-methyl-1,2,3,4-tetrahydroisoquinolin-7-yl)-7-(,15-naphthyridin-3-yl)quinazolin-2-amine], inhibition was half-maximal at 20 nM (IC50).

In the case of `COc1cc2c(cc1Nc1ncc3ccc(-c4ccncc4)cc3n1)CNCC2` [Compound 1-46, N-(6-methoxy-1,2,3,4-tetrahydroisoquinolin-7-yl)-7-(pyridin-4-yl)quinazolin-2-amine], 59.4 nM corresponded to half-maximal inhibition (IC50).

`COc1cc2c(cc1Nc1ncc3ccc(N4CC(O)(C(F)(F)F)C4)cc3n1)CN(C)CC2` (racemic) [Compound 3-54, (S and R)-1-12-[(6-methoxy-2-methyl-1,2,3,4-tetrahydroiso-quinolin-7-yl)amino]quinazolin-7-yl}-3-(trifluoromethyl)azet-idin-3-ol] registered a half-maximal inhibitory concentration (IC50) of 189 nM.

For the compound `CCS(=O)(=O)Cc1ccc(Nc2ncc3c(N)c(F)c(-c4cnc5c(c4C)NCCO5)cc3n2)cc1` [Compound 2-89, N2-(4-((ethylsulfonyl)methyl)phenyl)-6-fluoro-7-(8-methyl-2,3-dihydro-1H-pyrido[2,3-b][1,4]oxazin-7-yl)quinazoline-2,5-diamine], the midpoint of inhibition, the IC50, lay at 0.0117 nM.

The compound `COc1cc2c(cc1Nc1ncc3ccc(-c4cccc(C(C)(C)N)c4)cc3n1)CNCC2` [Compound 1-89, 7-[3-(2-aminopropan-2-yl)phenyl]-N-(6-methoxy-1,2,3,4-tetrahydroisoquinolin-7-yl)quinazolin-2-amine] came in with an IC50 of 156 nM.

Regarding `Cc1c(-c2cc3nc(Nc4ccc5c(c4)C4CC5CN4C)ncc3c(N)c2F)cnc2c1NCCO2` (racemic) [Compound 2-79, (R,S and S,R)-6-fluoro-N2-(2-methyl-1,2,3,4-tetrahydro-1,4-methanoisoquinolin-7-yl)-7-(8-methyl-2,3-dihydro-1H-pyrido[2,3-b][1,4]oxazin-7-yl)quinazoline-2,5-diamine], the midpoint of inhibition, the IC50, lay at 0.0305 nM.

Turning to `CC(=O)N1CCCC1c1ccc(Nc2ncc3c(N)c(F)c(-c4cnc5c(c4C)NCCO5)cc3n2)cc1` (single isomer, unassigned) [Compound 2-28, (R or S)-1-[2-(4-{[5-amino-6-fluoro-7-(8-methyl-2,3-dihydro-1H-pyrido[2,3-b][1,4]oxazin-7-yl)quinazolin-2-yl]amino}phenyl)pyrrolidin-1-yl]ethan-1-one], 0.149 nM corresponded to half-maximal inhibition (IC50).

In the case of `Cc1c(-c2cc3nc(Nc4ccc5c(c4)CN(C)C(C)(C)C5)ncc3c(N)c2F)cnc2c1NCCO2` (single isomer, unassigned) [Compound 2-128, 6-fluoro-7-(8-methyl-2,3-dihydro-1H-pyrido[2,3-b][1,4]oxazin-7-yl)-N2-(2,3,3-trimethyl-1,2,3,4-tetrahydroisoquinolin-7-yl)quinazoline-2,5-diamine], the IC50 is 0.0337 nM.

For the compound `COc1cc2c(cc1Nc1ncc3c(N)cc(-c4c(C)cccc4F)cc3n1)CN(C)CC2` [Compound 2-38, 7-(2-fluoro-6-methylphenyl)-N^2-(6-methoxy-2-methyl-1,2,3,4-tetrahydroisoquinolin-7-yl)quinazoline-2,5-diamine], the 50% inhibitory concentration (IC50) is 35.1 nM.

`Cc1c(-c2cc3nc(Nc4ccc(CS(=O)(=O)C(C)C)cc4)ncc3cc2F)cnc2c1NCCO2` [Compound 1-128, 6-fluoro-N-(4-((isopropylsulfonyl)methyl)phenyl)-7-(8-methyl-2,3-dihydro-1H-pyrido[2,3-b][1,4]oxazin-7-yl)quinazolin-2-amine]: the 50% inhibitory concentration (IC50) amounted to 0.0828 nM.

Compound `COc1cc2c(cc1Nc1ncc3ccc(-c4cccc(C(=O)NCCN5CCCC5)c4)cc3n1)CNCC2` [Compound 1-83, 3-{2-[(6-methoxy-1,2,3,4-tetrahydroisoquinolin-7-yl)amino]quinazolin-7-yl}-N-[2-(pyrrolidin-1-yl)ethyl]benzamide] registered an IC50 of 222 nM.

`COc1cc2c(cc1Nc1ncc3ccc(N4C(=O)OCC4(C)C)cc3n1)CN(C)CC2` [Compound 3-6, 3-{2-[(6-methoxy-2-methyl-1,2,3,4-tetrahydroisoquinolin-7-yl)amino]quinazolin-7-yl}-4,4-dimethyl-1,3-oxazolidin-2-one] had a concentration for half-maximal inhibition (IC50) of 45.2 nM.

For the compound `COc1cc2c(cc1Nc1ncc3ccc(N4C(=O)OC[C@@H]4C)cc3n1)CN(C)CC2` [Compound 3-2, (S)-3-{2-[(6-methoxy-2-methyl-1,2,3,4-tetrahydroisoquinolin-7-yl)amino]quinazolin-7-yl}-4-methyl-1,3-oxazolidin-2-one], half-maximal inhibition (IC50) was put at 1.79 nM.

As to `COc1cc2c(cc1Nc1ncc3c(N)c(F)c(-c4cnc5c(c4C)NCCO5)cc3n1)CNCC2` [Compound 2-4, 6-fluoro-N~2~-(6-methoxy-1,2,3,4-tetrahydroisoquinolin-7-yl)-7-(8-methyl-2,3-dihydro-1H-pyrido[2,3-b][1,4]oxazin-7-yl)quinazoline-2,5-diamine], the IC50 worked out at 0.979 nM.
